Data: US9040307B2, “Fluorescent pH detector system and related methods” (Blood Cell Storage, Inc., priority 2011, dated 2015)
Where two headings read alike, the source gives them in different places.

What was measured:
[1] = cited from earlier work
[2] = Absorbance and fluorescence of fluorophore/HSA conjugates in solution; assay type: physicochemical; conditions: pH 7.4; free acid 10 micromolar, conjugates 1 micromolar
Description: A 10 micromolar solution of SNAFL-1 acid (obtained from Molecular Probes) at pH 7 was used as a standard to more accurately determine the average loading of SNAFL-1 per each HSA conjugate preparation.
Excitation conditions are reported for each fluorescence spectrum (3000 msec irradiation at the indicated wavelength).
The Ocean Optics halogen light source was equipped with a 532 nm interference filter (Edmund Optics, Barrington, N.J.) and this allowed the fluorescent isosbestic point at 572 nm for pH 6-7 to be detected.

[3] = pKa determination from fluorescence emission spectra of SNAFL free acids; assay type: physicochemical; conditions: 10 μM free acid, 50 mM phosphate buffers
Description: The pH at which two molecular species (tautomers) are equally represented is defined as the pKa. There are many variables that can affect pKa and methods for measurement are difficult since the structures have overlapping absorbance. Therefore direct comparisons from the literature can vary slightly. The calculations contained herein are based on the assumption that, at pH 10, only the trianionic naphtholate structure is present. The intensity of fluorescence at the emission maxima is divided by 2, and pH of the intersecting pH curve is calculated by interpolation between the nearest 2 curves.

[4] = Photobleaching degradation under fluorescent light; assay type: physicochemical
Description: A photobleaching degradation curve for EBIO-3 and BCSI-3 was constructed utilizing fluorescent light exposure and measuring the absorption at 530 nm to quantify functional dye. Identical concentrations of both dyes, 7.9 μM, were exposed to continuous fluorescent light (34 W Philips Hg bulb) from a distance of 16 inches for 3 days. At 73.5 hours the two dyes had degraded 64% and the degradation is within 5.6% of each other.

[5] = Absorbance and emission spectra versus pH of SNAFL analogs in solution
[6] = Lee et al. (1989) Cytometry 10, 151-164

absorbance maximum [2] [nm] | pKa [3] | pKa (physchem) | degraded (reduction in absorbance at 530 nm) ([4]; 73.5 hours continuous fluorescent light, 7.9 μM, pH 7.4 PBS) [%] | absorption at 530 nm of control set ([4]; protected from light) | Absorbance λmax (base) ([5]; 10 μM, pH 10) [nm] | Emission λmax (base) ([5]; pH 10, excitation at absorbance λmax (base)) [nm] | Emission λiso ([5]; wavelength where emission spectra crossed, excitation at absorbance λmax (base)) [nm] | Molecule | pKa [1, 6] | pKa ([1]; published values, free or immobilized dye)
 |  |  |  |  |  |  |  | O=S1(=O)OC2(c3ccccc31)c1ccc3cc(O)ccc3c1Oc1c2ccc2cc(O)ccc12 [VITABLUE] | 7.56 | 
 |  |  |  |  |  |  |  | Carboxynaphthofluorescein [CNF] | 7.99 | 7.62
534 | 6.6 | 6.61 | 64 | unchanged | 534 | 610 | 560 | O=C(O)CCc1cc2c(-c3ccccc3C(=O)O)c3ccc4cc(O)c(Cl)cc4c3oc-2cc1=O [EBIO-3] |  | 
